Reference: US5733924A, “DC 107 derivatives and treatment methods” (Kyowa Hakko Kogyo Co., Ltd., priority 1995, dated 1998)
Converted amounts (≈) assume the structure as drawn. Where two headings read alike, the source gives them in different places.

Key:
[1] = test system: Enterococcus faecium ATCC 10541; test: Antibacterial activity, agar dilution method (MIC); assay type: cell-based
From the text: (§1) The antibacterial activity as determined by the agar dilution method using a medium prepared by dissolving 3 g of Bacto-Tryptone (a product of Difco Laboratories), 3 g of a meat extract, 1 g of an yeast extract, 1 g of glucose and 16 g of agar in one liter of water (pH 7).
EF: Enterococcus faecium ATCC 10541

[2] = test system: Staphylococcus aureus ATCC 6538P; test: Antibacterial activity, agar dilution method (MIC); assay type: cell-based; conditions: ATCC6538P
From the text: as §1
SA: Staphylococcus aureus ATCC 6538P

[3] = test system: Bacillus subtilis No. 10707; test: Antibacterial activity, agar dilution method (MIC); assay type: cell-based
From the text: as §1
BS: Bacillus subtilis No. 10707

[4] = test system: Klebsiella pneumoniae ATCC 10031; test: Antibacterial activity, agar dilution method (MIC); assay type: cell-based; conditions: ATCC10031; KP: Klebsiella pneumoniae ATCC 10031; agar dilution, pH 7; read-out: MIC (minimum growth inhibitory concentration)
From the text: as §1
KP: Klebsiella pneumoniae ATCC 10031

[5] = test system: P388 Leukemia; test: Antitumor activity against P388 leukemia in mice (increased life span); assay type: in vivo, CDF1 mice; conditions: Mus musculus, P388, ip, 720 h; for ILS at 16 mg/kg: single i.p. 24 hours after transplantation, CDF1 mice, 30 days observation
Description: Ascites were collected from the abdominal cavity of P388 ascites tumor-bearing cancer mice (DBA/2) on the 7th day after transplantation. A number of P388 cells in the ascites was counted, and a tumor cell floating liquid of 5×10^6 cells/ml was prepared using a physiological saline solution. Then, 0.2 ml of the solution containing 1×10^6 cells was transplanted into the abdominal cavity of CDF1 mice having a body weight of from 20 to 25 g.
The effect of the test compound was determined in terms of the ratio of average survival days of the group administered with the test compound to average survival days of the control group (non-medicated group) (i.e., an increased life span, ILS%).

[6] = test system: Escherichia coli ATCC 26; test: Antibacterial activity, agar dilution method (MIC); assay type: cell-based
From the text: as §1
EC: Escherichia coli ATCC 26

[7] = Enterococcus faecium, ATCC10541, pH 7, read-out: MIC (minimum growth inhibitory concentration), EF: Enterococcus faecium ATCC 10541
[8] = Staphylococcus aureus, pH 7, read-out: MIC (minimum growth inhibitory concentration)
[9] = Bacillus subtilis, NO.10707, pH 7, read-out: MIC (minimum growth inhibitory concentration), BS: Bacillus subtilis No. 10707
[10] = ATCC10541, EF: Enterococcus faecium ATCC 10541, pH 7, read-out: MIC (minimum growth inhibitory concentration)
[11] = SA: Staphylococcus aureus ATCC 6538P, agar dilution, pH 7, read-out: MIC (minimum growth inhibitory concentration)
[12] = BS: Bacillus subtilis No. 10707, pH 7, read-out: MIC (minimum growth inhibitory concentration)
[13] = Escherichia coli, ATCC26, pH 7, read-out: MIC (minimum growth inhibitory concentration), EC: Escherichia coli ATCC 26
[14] = ATCC26, EC: Escherichia coli ATCC 26, pH 7, read-out: MIC (minimum growth inhibitory concentration)

| SMILES | MIC [1, 10] [µg/mL] | MIC [2, 11] [µg/mL] | MIC [3, 12] [µg/mL] | MIC [4] [µg/mL] | MIC [6, 14] [µg/mL] | MIC [1, 7] [µg/mL] | MIC [2, 8] [µg/mL] | MIC [3, 9] [µg/mL] | ILS at 2 mg/kg ([5]; read-out: ILS (increased life span)) [%] | MIC [6, 13] [µg/mL] | ILS at 16 mg/kg [5] [%] |
| --- | --- | --- | --- | --- | --- | --- | --- | --- | --- | --- | --- |
| C/C1=C\C(O)C(=O)/C=C/C=C\c2csc(n2)C(C)N2C(=O)CC(C(C)(O)C(=O)SCOC(=O)C3CCCCC3)(CC1)[S+]2[O-] (centres unmarked) [Compound 80] | – | – | – | – | – | 5.2 (≈ 7.99 µM) | 2.6 (≈ 3.99 µM) | 0.041 (≈ 0.063 µM) | – | – | – |
| C/C1=C\C(OC(=O)OCC(C)C)C(=O)/C=C/C=C\c2csc(n2)C(C)N2C(=O)CC(C(C)(O)C(=O)SCc3oc(=O)oc3C)(CC1)[S+]2[O-] (centres unmarked) [Compound 54] | – | – | – | – | – | 0.13 (≈ 0.18 µM) | 0.13 (≈ 0.18 µM) | – | 42 | 0.018 (≈ 0.0249 µM) | – |
| C/C1=C\C(OCOCc2ccccc2)C(=O)/C=C/C=C\c2csc(n2)C(C)N2C(=O)CC(C(C)(O)C(=O)SCc3oc(=O)oc3C)(CC1)[S+]2[O-] (centres unmarked) [Compound 61] | – | – | – | – | – | 0.65 (≈ 0.875 µM) | 0.65 (≈ 0.875 µM) | 0.081 (≈ 0.109 µM) | – | 2.6 (≈ 3.5 µM) | – |
| C/C1=C\C(OC(=O)CNC(=O)[C@H](CO)NC(=O)OCc2ccccc2)C(=O)/C=C/C=C\c2csc(n2)C(C)NC(=O)CC2(CC1)[S+]([O-])SC(=O)C2(C)O (some centres unmarked) [Compound 116] | 0.033 (≈ 0.0418 µM) | 0.033 (≈ 0.0418 µM) | 0.033 (≈ 0.0418 µM) | 0.033 (≈ 0.0418 µM) | 4.2 (≈ 5.32 µM) | – | – | – | – | – | – |
| COC1(OC2/C=C(\C)CCC3(CC(=O)NC(C)c4nc(cs4)/C=C\C=C\C2=O)[S+]([O-])SC(=O)C3(C)O)CCOCC1 (centres unmarked) [Compound 90] | 0.041 (≈ 0.0656 µM) | 0.041 (≈ 0.0656 µM) | 0.02 (≈ 0.032 µM) | 0.16 (≈ 0.256 µM) | 0.65 (≈ 1.04 µM) | – | – | – | – | – | – |
| C/C1=C\C(OC(=O)OCC2c3ccccc3-c3ccccc32)C(=O)/C=C/C=C\c2csc(n2)C(C)NC(=O)CC2(CC1)[S+]([O-])SC(=O)C2(C)O (centres unmarked) [Compound 15] | 0.081 (≈ 0.111 µM) | 0.16 (≈ 0.218 µM) | 0.041 (≈ 0.0559 µM) | – | – | – | – | – | – | – | 63 |

Now from value to compound, other results behind:

| MIC [1, 10] [µg/mL] | MIC [2, 11] [µg/mL] | MIC [3, 12] [µg/mL] | MIC [4] [µg/mL] | MIC [6, 14] [µg/mL] | SMILES | MIC [1, 7] [µg/mL] | MIC [2, 8] [µg/mL] | MIC [3, 9] [µg/mL] | ILS at 2 mg/kg ([5]; read-out: ILS (increased life span)) [%] | MIC [6, 13] [µg/mL] | ILS at 16 mg/kg [5] [%] |
| --- | --- | --- | --- | --- | --- | --- | --- | --- | --- | --- | --- |
| 0.78 (≈ 1.12 µM) | 0.78 (≈ 1.12 µM) | 0.26 (≈ 0.374 µM) | 0.39 (≈ 0.561 µM) | – | COC(C)(C)OC1/C=C(\C)CCC2(C(C)(O)C(=O)SCc3oc(=O)oc3C)CC(=O)N(C(C)c3nc(cs3)/C=C\C=C\C1=O)[S+]2[O-] (centres unmarked) [Compound 121] | – | – | – | – | – | – |
| 0.39 (≈ 0.585 µM) | 0.39 (≈ 0.585 µM) | 0.049 (≈ 0.0735 µM) | 0.098 (≈ 0.147 µM) | – | CCCCCCCC(=O)OCSC(=O)C(C)(O)C12CC/C(C)=C/C(O)C(=O)/C=C/C=C\c3csc(n3)C(C)N(C(=O)C1)[S+]2[O-] (centres unmarked) [Compound 84] | – | – | – | – | – | – |
| 1 (≈ 1.36 µM) | 1 (≈ 1.36 µM) | 0.033 (≈ 0.0449 µM) | 4.2 (≈ 5.71 µM) | – | COC1(OC2C=C(C)CCC3(C(C)(O)C(=O)SCc4oc(=O)oc4C)CC(=O)N(C(C)c4nc(cs4)C=CC=CC2=O)[S+]3[O-])CCCCC1 (centres unmarked) [Compound 126] | – | – | – | – | – | – |
| 0.26 (≈ 0.446 µM) | 0.26 (≈ 0.446 µM) | 0.13 (≈ 0.223 µM) | 4.2 (≈ 7.21 µM) | 4.2 (≈ 7.21 µM) | CCOC(=O)OC1/C=C(\C)CCC2(CC(=O)NC(C)c3nc(cs3)/C=C\C=C\C1=O)[S+]([O-])SC(=O)C2(C)O (centres unmarked) [Compound 10] | – | – | – | – | – | – |
| 0.065 (≈ 0.117 µM) | 0.13 (≈ 0.234 µM) | 0.033 (≈ 0.0595 µM) | 1 (≈ 1.8 µM) | 8.3 (≈ 15 µM) | COCOC1/C=C(\C)CCC2(CC(=O)NC(C)c3nc(cs3)/C=C\C=C\C1=O)[S+]([O-])SC(=O)C2(C)O (centres unmarked) [Compound 30] | – | – | – | – | – | – |
| 0.72 (≈ 1.08 µM) | 0.72 (≈ 1.08 µM) | 0.72 (≈ 1.08 µM) | 2.9 (≈ 4.35 µM) | 46 (≈ 69 µM) | COCOC1/C=C(\C)CCC2(C(C)(O)C(=O)SCc3oc(=O)oc3C)CC(=O)N(C(C)c3nc(cs3)/C=C\C=C\C1=O)[S+]2[O-] (centres unmarked) [Compound 58] | – | – | – | – | – | – |
| 2.1 (≈ 2.5 µM) | 2.1 (≈ 2.5 µM) | 2.1 (≈ 2.5 µM) | 2.1 (≈ 2.5 µM) | – | CC1=CC(OC(=O)CNC(=O)CNC(=O)c2ccccc2)C(=O)C=CC=Cc2csc(n2)C(C)N2C(=O)CC(C(C)(O)C(=O)SCc3oc(=O)oc3C)(CC1)[S+]2[O-] (centres unmarked) [Compound 167] | – | – | – | – | – | 90 |
| 2.6 (≈ 4.7 µM) | 1.3 (≈ 2.35 µM) | 10 (≈ 18.1 µM) | 10 (≈ 18.1 µM) | 42 (≈ 76 µM) | CC(=O)OC1(C)C(=O)S[S+]([O-])C12CC/C(C)=C/C(O)C(=O)/C=C/C=C\c1csc(n1)C(C)NC(=O)C2 (centres unmarked) [Compound 25] | – | – | – | – | – | – |
